Test [1] has as its target T1, His-tagged full-length RSK2 (RPS6KA3) (Homo sapiens, UniProt P51812).
T1 construct: His-tagged full-length RSK2 (RPS6KA3, Invitrogen PV3323); His; purchased Invitrogen PV3323
Briefly: RSK2 Omnia Assay for compound IC50 determination. Type of test: biochemical. The note with it: ATP 15 μM, n=2, read-out: Mean RSK2 Biochem IC50. In short, it runs like this:
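Continuous fluorescence assay (ex 360/em 485 nm) of SOX-peptide (Omnia ST Peptide 6, 5 μM) phosphorylation with ATP 15 μM (Km 16.3 μM). Enzyme was […], in pH 7.5 HEPES/MgCl2 buffer with 1% DMSO. IC50 came from 11-point threefold dilutions ([…]) by four-parameter fit of initial slopes, in duplicate; Ki by Cheng-Prusoff assuming competitive inhibition.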

Test [2] concerns the target T2, His-tagged full length RSK1 (RPS6KA1) (Homo sapiens, UniProt Q15418).
T2 construct: His-tagged full length RSK1 (RPS6KA1, Millipore 14-509); His; purchased Millipore 14-509
Briefly: RSK1 Omnia Assay for compound IC50 determination. The format is biochemical. The following applies: ATP 15 μM, n=2, read-out: Mean RSK1 Biochem IC50. The procedure:
RSK1 & RSK2 Omnia Assay Protocol for Compound IC50 Determination
The Omnia Assay (Invitrogen) has been optimized for His-tagged full length RSK1 (RPS6KA1, Millipore 14-509) and for His-tagged full-length RSK2 (RPS6KA3, Invitrogen PV3323). In this assay system, Omnia ST Peptide 6 (Invitrogen KNZ1061) functions as a substrate for RSK1 or RSK2. Phosphorylation of this SOX-containing peptide results in an increase in fluorescence at 485 nm upon excitation at 360 nm.
Assays are carried out in 384-well OptiPlates (Perkin Elmer 6007290) in a total volume of 20 μL containing RSK1 ([…]) or RSK2 ([…]), Omnia ST Peptide 6 (5 μM), ATP (15 μM, Km=16.3 μM), and test compound (variable) in RSK assay buffer (50 mM HEPES, pH 7.5, 10 mM MgCl2, 0.01% Tween-20, 1% glycerol, 1 mM DTT, 1 mM EGTA, 0.01% BSA) with 1% DMSO.
IC50s for test compounds are typically determined using an 11-point three-fold serial dilution with a final assay concentration ranging either from 170 μM to […] or from 17 μM to […]. All compound concentrations are assayed in duplicate. Initial compound dilutions are prepared at 100× concentration in 100% DMSO from a 10 mM stock solution. Compounds are further diluted 1:25 in assay buffer resulting in a 4× concentrated solution.
To run the assay 5 μL of the above 4× concentrated compound solution (or 4% DMSO for positive controls) is added to the assay plate followed by 5 μL of a solution containing peptide (20 μM) and ATP (60 μM) in assay buffer. The reaction is initiated by the addition of 10 μL of RSK1 ([…]) or RSK2 ([…]) in assay buffer, or assay buffer alone for negative controls. The increase in fluorescence due to peptide phosphorylation is monitored continuously as a function of time using a Spectramax M5 plate reader (Molecular Devices) equipped with SoftMax Pro software.
The slopes from the linear portion of progress curves are used to determine IC50 values by non-linear curve-fitting to a four-parameter equation using GraphPad Prism (GraphPad Software, Inc.) or XLFit (IDBS). IC50's are determined in duplicate (n=2) and Ki values are calculated from IC50 values using the Cheng-Prusoff equation assuming a competitive mode of inhibition.

The test system of another test is RSK1-4. The note with it: G. P. Sapkota et al., Biochem J., 401, 29-38 (2007); cited from earlier work.

pIC50: −log10 of the molar value. Where only a bound is given, the exact number is not on record here.

T1 sequence (P51812 whole entry): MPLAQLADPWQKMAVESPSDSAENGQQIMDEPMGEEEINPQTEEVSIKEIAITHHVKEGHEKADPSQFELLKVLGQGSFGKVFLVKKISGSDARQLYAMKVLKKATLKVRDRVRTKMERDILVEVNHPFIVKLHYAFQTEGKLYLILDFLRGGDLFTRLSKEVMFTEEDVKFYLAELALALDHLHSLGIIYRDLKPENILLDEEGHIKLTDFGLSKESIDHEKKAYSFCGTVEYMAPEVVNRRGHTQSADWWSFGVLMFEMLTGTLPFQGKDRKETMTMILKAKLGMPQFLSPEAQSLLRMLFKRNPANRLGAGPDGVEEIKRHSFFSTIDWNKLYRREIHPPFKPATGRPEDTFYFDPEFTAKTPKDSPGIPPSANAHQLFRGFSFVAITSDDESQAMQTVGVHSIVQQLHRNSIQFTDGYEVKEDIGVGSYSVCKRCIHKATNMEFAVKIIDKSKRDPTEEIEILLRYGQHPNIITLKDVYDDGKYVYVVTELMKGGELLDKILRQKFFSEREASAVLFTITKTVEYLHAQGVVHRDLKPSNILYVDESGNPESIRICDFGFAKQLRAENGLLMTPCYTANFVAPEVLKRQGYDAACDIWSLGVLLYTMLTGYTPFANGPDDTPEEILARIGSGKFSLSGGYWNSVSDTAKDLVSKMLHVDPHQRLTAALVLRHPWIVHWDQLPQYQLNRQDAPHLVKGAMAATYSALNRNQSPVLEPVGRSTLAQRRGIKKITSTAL
T2 sequence (Q15418 whole entry): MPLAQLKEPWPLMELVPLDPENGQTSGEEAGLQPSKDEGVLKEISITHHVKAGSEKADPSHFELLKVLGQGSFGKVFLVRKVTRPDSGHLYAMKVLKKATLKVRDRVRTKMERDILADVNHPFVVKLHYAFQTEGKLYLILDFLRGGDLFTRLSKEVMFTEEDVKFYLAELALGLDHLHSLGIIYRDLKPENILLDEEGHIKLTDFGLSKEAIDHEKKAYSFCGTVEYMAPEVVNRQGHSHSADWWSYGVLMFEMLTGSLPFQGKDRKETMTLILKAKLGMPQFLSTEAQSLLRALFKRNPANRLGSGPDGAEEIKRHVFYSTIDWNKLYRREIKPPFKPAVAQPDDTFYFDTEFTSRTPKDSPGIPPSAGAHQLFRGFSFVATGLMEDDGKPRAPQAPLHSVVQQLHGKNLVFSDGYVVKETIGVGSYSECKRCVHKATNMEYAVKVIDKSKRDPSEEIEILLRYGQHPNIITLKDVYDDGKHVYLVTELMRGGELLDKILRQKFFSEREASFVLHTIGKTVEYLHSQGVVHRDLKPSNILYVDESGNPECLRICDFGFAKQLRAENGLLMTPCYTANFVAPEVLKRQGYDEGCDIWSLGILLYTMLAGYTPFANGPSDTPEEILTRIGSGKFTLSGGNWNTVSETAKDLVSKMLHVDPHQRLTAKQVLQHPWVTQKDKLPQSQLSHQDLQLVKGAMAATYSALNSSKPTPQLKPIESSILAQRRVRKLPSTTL

Regarding `C[C@@H]1C(=O)N(c2ccccc2)c2cnc(Nc3ccc4[nH]ncc4c3)nc2N1C1CCCC1` [Example 66, (7R)-8-cyclopentyl-2-(1H-indazol-5-ylamino)-7-methyl-5-phenyl-7,8-dihydropteridin-6(5H)-one], the pIC50 in test [1] and in test [2] was at least 7.00 throughout. For `C[C@@H]1C(=O)N(c2cccnc2)c2cnc(Nc3ccc4[nH]ncc4c3)nc2N1C1CCCCC1` [Example 23, (7R)-8-cyclohexyl-2-(1H-indazol-5-ylamino)-7-methyl-5-(pyridin-3-yl)-7,8-dihydropteridin-6(5H)-one], the pIC50 in test [1] and in test [2] was at least 7.00 throughout. With `C[C@@H]1C(=O)N(c2cccc(C#N)c2)c2cnc(Nc3ccc4[nH]ncc4c3)nc2N1C1CCCCC1` [Example 29, 3-[(7R)-8-cyclohexyl-2-(1H-indazol-5-ylamino)-7-methyl-6-oxo-7,8-dihydropteridin-5(6H)-yl]benzonitrile], the pIC50 in test [1] and in test [2] was at least 7.00 each time. On to `CC(C)CCN1c2nc(Nc3cc(F)c(O)c(F)c3)ncc2N(C)C(=O)C1C` (stereo not drawn) [BI-D1870], for which, in the test on RSK1-4, the “inhibitor of RSK1-4” value is reported as “potent inhibitor”. As to `C[C@@H]1C(=O)N(c2ccsc2)c2cnc(Nc3ccc4[nH]ncc4c3)nc2N1C1CCCCC1` [Example 57, (7R)-8-cyclohexyl-2-(1H-indazol-5-ylamino)-7-methyl-5-(thiophen-3-yl)-7,8-dihydropteridin-6(5H)-one], the pIC50 in test [1] and in test [2] was at least 7.00 throughout.

As usually defined, the pIC50 is the IC50 on a negative log10 scale, so that one unit is a factor of ten.

(Values after patent publication US9351974B2, “Substituted pteridinones for the treatment of cancer” (OSI Pharmaceuticals, LLC, priority 2011, dated 2016).)
